Key:
[1] = test system: mir-155^LSLtTA lymphoma subcutaneous flank tumors; experiment: mir-155^LSLtTA lymphoma subcutaneous flank tumor model in nude mice; type: in vivo; conditions: early endpoint study; n = 3, pHLIP-anti155 n = 4
[2] = mouse, in vivo, iv

| Kidney distribution [2] | Compound | Onset of splenomegaly (spleen mass) [1] | Clearance route [2] |
| --- | --- | --- | --- |
| – | C[C@H]1c2cccc(O)c2C(=O)C2=C(O)[C@]3(O)C(=O)C(C(N)=O)=C(O)[C@@H](N(C)C)[C@@H]3[C@@H](O)[C@@H]21 [DOX, doxycycline] | reduced the onset of splenomegaly | – |
| shows kidney targeting | AAEQNPIYWARYADWLFTTPLLLLDLALLVDADEGT(CNPys)G [pHLIP] | – | much of the peptide is cleared by renal excretion |
